Assay results as given in patent US5250544A, “New piperidine tetrahydropyridine and pyrrolidine compounds” (Adir et Compagnie, priority 1990, dated 1993).

Experiment: Evaluation of the antihypertensive activity: arterial pressure and heart rate in anesthetized dogs, i.v.
Type: in vivo
Details: anesthetized mongrel dogs, versus flesinoxan racemic or isomer (+)
Method: Mongrel dogs (males and females) were anesthetized with phenobarbital (30 mg/kg i.v.) and then placed under artificial respiration (Bird Mark VII respirator). The arterial pressure was measured using a catheter placed in the abdominal aorta via the femoral artery. This catheter is connected to a pressure cell (Statham® R23 D6) connected to a recorder.
The heart rate was measured using a Gould Biotach®.
The sympathetic nervous activity was recorded at the level of the renal nerve using a silver electrode. […] The compounds to be examined were administered intravenously.

SMILES: O=C(NCCN1CCN(c2cccc3c2OC[C@H](CO)O3)CC1)c1ccc(F)cc1 (single isomer, unassigned) [Flesinoxan (+) Isomer]
- activity compared with reference product flesinoxan (antihypertensive study, Table II): most active isomer of flesinoxan
